Results published in US20120316105A1, “Polymyxin Derivates Useful As Antibacterial Agents” (priority 2011, published 2012).

Legend:
Type in all cases: cell-based
[1] = test system: AB-3167, clinical isolate of Acinetobacter baumannii; conditions: A. baumannii AB-3167; overnight incubation, lower of duplicate values; trifluoroacetate salt (Example 1 and PMB sulfate)
Summary of the method: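 Broth dilution MIC per CLSI (M7-A8, M100-S20, M26-A for bactericidal), 2-fold dilution series, overnight incubation, visual read of lowest concentration inhibiting growth versus drug-free control. Duplicates run; lower value reported if within 2-fold, otherwise repeated. Compounds tested as trifluoroacetate salts; QC strains and reference compounds required in range.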

[2] = test system: AB-1649, polymyxin-resistant clinical isolate of Acinetobacter baumannii; conditions: A. baumannii AB-1649; overnight incubation, lower of duplicate values; trifluoroacetate salt (Example 1 and PMB sulfate)
Summary of the method: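 Broth dilution MIC per CLSI against the polymyxin-resistant A. baumannii isolate, 2-fold dilutions, overnight incubation, visual read of lowest concentration inhibiting growth. Run in duplicate, lower value reported when within 2-fold; MBC per CLSI M26-A guideline.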

[3] = test system: Pseudomonas aeruginosa strain PA01; conditions: P. aeruginosa PA01; overnight incubation, lower of duplicate values; trifluoroacetate salt (Example 1 and PMB sulfate)
Summary of the method: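 CLSI broth dilution against P. aeruginosa PA01 with two-fold concentration steps and overnight incubation; MIC is lowest concentration visibly inhibiting growth versus drug-free control, in mg/L. Compounds tested as trifluoroacetate salts, in duplicate, lower value reported if within 2-fold; control organisms and reference compounds included.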

[4] = test system: PA-1646, polymyxin-resistant clinical isolate of Pseudomonas aeruginosa; conditions: P. aeruginosa PA-1646; overnight incubation, lower of duplicate values; trifluoroacetate salt (Example 1 and PMB sulfate)
Summary of the method: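 Broth dilution MIC per CLSI with 2-fold concentration steps, read visually after overnight incubation as lowest concentration inhibiting growth; duplicates within 2-fold, lower value reported, with QC strains and reference compounds. Compounds tested as trifluoroacetate salts, polymyxin B as sulfate.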

[5] = test system: KP-5016, ESBL+ clinical isolate of Klebsiella pneumoniae (SHV-5); test: Minimum inhibitory concentration (MIC, CLSI), KP-5016; conditions: K. pneumoniae KP-5016; overnight incubation, lower of duplicate values; trifluoroacetate salt (Example 1 and PMB sulfate)
Description: (§1) Minimum bactericidal concentration (MBC, mg/L), minimum inhibitory concentration (MIC, mg/L), and human renal proximal tubule epithelial cell line cytotoxicity concentration 50% (hRPTEC, TC50, micromolar) for compounds of Formula I are listed in Table 2. The compounds of Formula I were tested as the corresponding trifluoroacetate salt except for Example 1 which was tested as the sulfate salt. For Table 2 below: PMB=polymyxin B as the sulfate salt (Bedford Laboratories, pharmaceutical grade); PMB1=polymyxin B1 as the trifluoroacetate salt; Nona=polymyxin B nonapeptide as the trifluoroacetate salt. PMB1 and Nona were prepared using the solid phase methodology described in the experimental section herein.
(§2) The in vitro antibacterial activity of compounds of Formula I was evaluated by MIC testing according to Clinical and Laboratory Standards Institute (CLSI). See: Clinical and Laboratory Standards Institute. Methods for Dilution Antimicrobial Susceptibility Tests for Bacteria that Grow Aerobically; Approved Standard-Eighth Edition. CLSI document M7-A8 [ISBN 1-56238-689-1]. Clinical and Laboratory Standards Institute, 940 West Valley Road, Suite 1400, Wayne, Pa. 19087-1898 USA, 2006; also Clinical and Laboratory Standards Institute. Performance Standards for Antimicrobial Susceptibility Testing; Twentieth Informational Supplement. CLSI document M100-S20 [ISBN 1-56238-716-2]. Clinical and Laboratory Standards Institute. Methods for Determining Bactericidal Activity of Antimicrobial Agents; Approved Guideline. CLSI document M26-A (ISBN 1-56238-384-1). CLSI, 940 West Valley Road, Suite 1400, Wayne, Pa. 19087-1898 USA, 1999.
(§3) The MIC determination is a standard laboratory method for evaluating the antibacterial activity of a compound. The MIC represents the lowest drug concentration that inhibits visible growth of bacteria following overnight incubation. […] Typically, the drug concentration range is broken down into 2-fold increments (e.g. 0.06 mg/L, 0.12 mg/L, 0.25 mg/L, 0.50 mg/L, 1.0 mg/L, etc.) and the various drug concentrations are all individually incubated overnight with approximately the same number of bacteria. The MIC is then determined by visually inspecting the drug effect at each concentration, and identifying the lowest drug concentration that has inhibited bacterial growth as compared to the drug free control. Typically, bacteria continue to grow at drug concentrations lower than the MIC and don't grow at concentrations at and above the MIC.
(§4) The MIC values described in Table 2 below were derived from assays wherein each test compound was evaluated in duplicate. In cases where the duplicate values varied by 0-2-fold, the lower of the two values was reported below. Generally speaking, if the duplicate values varied by more than 2-fold, the assay was considered non-valid and was repeated until the variation between duplicate runs was ≦2-fold. In line with the CLSI guidelines referred to above, both control organisms and reference compounds were utilized in each MIC assay to provide proper quality control. MIC values generated with these control organisms and reference compounds were required to fall within a defined range for the assay to be considered valid and be included herein. Those skilled in the art will recognize that MIC values can and do vary from experiment to experiment. Generally speaking, it should be recognized that MIC values often vary +/−2-fold from experiment to experiment. While a single MIC is reported for each compound and each microorganism, the reader should not conclude that each compound was only tested once. Several of the compounds were subjected to multiple tests. The data reported in Table 2 is reflective of the compounds relative activity and different MICs may have been generated on these occasions in line with the guidelines described above.
The following bacterial strains were used in these MIC determinations: […]

[6] = test system: Human Renal Proximal Tubule Epithelial cells (hRPTEC); test: Cytotoxicity assay (LDH release), hRPTEC; conditions: hRPTEC, 24 hours treatment, LDH release; Toxic Concentration 50%; read-out: hRPTEC TC50
Summary of the method: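 hRPTEC grown 72 h in REGM, then exposed to compounds at 100, 67, 44, 30, 20 and 13 micromolar for 24 h at 37° C, 5% CO2. LDH released into supernatant measured; TC50 (micromolar) derived. Compounds tested as trifluoroacetate salts unless otherwise noted.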

[7] = test system: PA-1646, polymyxin-resistant clinical isolate of Pseudomonas aeruginosa; conditions: P. aeruginosa PA-1646; tested as trifluoroacetate salt (Example 1 and PMB as sulfate salt)
Summary of the method: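 Broth dilution MIC and bactericidal (MBC) testing per CLSI methods (M7-A8, M100-S20, M26-A) against polymyxin-resistant clinical P. aeruginosa isolate PA-1646. Compounds tested as trifluoroacetate salts, one as sulfate salt; values in mg/L.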

[8] = test system: EC-1, mouse virulent strain of Escherichia coli; conditions: E. coli EC-1; overnight incubation, lower of duplicate values; trifluoroacetate salt (Example 1 and PMB sulfate)
Summary of the method: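 Compounds were tested mostly as trifluoroacetate salts. Duplicate CLSI broth-dilution MICs were read visually after overnight incubation over 2-fold dilutions, with the lower of duplicates within 2-fold taken. QC organisms and reference drugs were included in each run.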

[9] = test system: KP-3700, ESBL+ clinical isolate of Klebsiella pneumoniae; test: Minimum inhibitory concentration (MIC, CLSI), KP-3700; conditions: K. pneumoniae KP-3700; overnight incubation, lower of duplicate values; trifluoroacetate salt (Example 1 and PMB sulfate)
Description: as §1, §2, §3, §4
The following bacterial strains were used in these MIC determinations:
KP-3700 is an ESBL+clinical isolate of Klebsiella pneumoniae obtained in 2006; and […]

[10] = test system: AB-1649, polymyxin-resistant clinical isolate of Acinetobacter baumannii; conditions: A. baumannii AB-1649; tested as trifluoroacetate salt (Example 1 and PMB as sulfate salt)
Summary of the method: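 MIC and MBC were measured by CLSI broth dilution methods (M7-A8, M100-S20, M26-A) against a polymyxin-resistant clinical isolate and reported in mg/L. Compounds were tested as trifluoroacetate salts, with one exception tested as the sulfate.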

## polymyxin B [PMB, reference compound]
[1]
  AB-3167 MIC: 0.25 mg/L
[2]
  AB-1649 MIC: 8 mg/L
[3]
  PA01 MIC: 0.5 mg/L
[4]
  PA-1646 MIC: 8 mg/L
[5]
  KP-5016 MIC: 32 mg/L
[6]
  CC50: 20 µM
[7]
  PA-1646 MBC: 32 mg/L
[8]
  EC-1 MIC: 0.125 mg/L
[9]
  KP-3700 MIC: 0.25 mg/L
[10]
  AB-1649 MBC: 8 mg/L
